Values of other authors as cited in patent publication US6562588B2, “Sialidase and recombinant cell lines” (Genentech, Inc., priority 1993, dated 2003).
Where two headings read alike, the source gives them in different places.

Columns and labels:
[1] = target: T1, lysosomal sialidase (Fibroblasts) (Homo sapiens, UniProt Q99519); details: read-out: Ki, fibroblast sialidase (Lysosome)
T1 construct: host or cells: fibroblasts

[2] = test system: plasma membrane sialidase (Adenovirus Transformed Kidney Cells); details: read-out: Ki, adenovirus transformed kidney cell sialidase (Plasma Membrane)
[3] = target: cytosolic sialidase from rat muscle (Rattus norvegicus, UniProt Q64627); details: read-out: Ki, rat muscle sialidase (Cytosol)
cytosolic sialidase from rat muscle, sequence (Q64627 whole entry): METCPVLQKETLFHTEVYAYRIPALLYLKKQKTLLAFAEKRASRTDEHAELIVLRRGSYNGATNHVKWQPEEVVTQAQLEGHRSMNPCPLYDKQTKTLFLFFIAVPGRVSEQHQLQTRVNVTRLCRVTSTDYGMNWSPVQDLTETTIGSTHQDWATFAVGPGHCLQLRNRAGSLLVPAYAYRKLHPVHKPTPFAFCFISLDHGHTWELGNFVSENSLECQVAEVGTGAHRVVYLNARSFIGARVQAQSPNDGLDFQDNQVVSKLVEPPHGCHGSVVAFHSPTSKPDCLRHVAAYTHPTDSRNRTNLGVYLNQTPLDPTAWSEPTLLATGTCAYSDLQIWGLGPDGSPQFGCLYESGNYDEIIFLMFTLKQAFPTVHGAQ

## CC(=O)N[C@H]1[C@H]([C@H](O)[C@H](O)CN=[N+]=[N-])OC(C(=O)O)=C[C@@H]1O [9-Azido Neu5Ac2en, 5-acetamido-2,6-anhydro-9-azido-3,5,9-trideoxy-D-glycero-D-galacto-non-2-enonic acid]
[1]
  Ki: 10 µM
[2]
  Ki: 10 µM
[3]
  Ki: 50 µM

## CC(=O)N[C@H]1[C@H]([C@H](O)[C@H](O)CSc2ccc(N=[N+]=[N-])cc2[N+](=O)[O-])OC(C(=O)O)=C[C@@H]1O [9-S-PANP Neu5Ac2en, 9-S-(4′-azido-2′-nitro-phenyl)-5-acetamido-2,6 anhydro-9-thio-2,5,9-trideoxy-D-glycero-D-galacto-non-2-enonic acid]
[3]; 4-MU-Neu5Ac as substrate, previously reported data
  Ki: > 50 µM
